The target in data set [1] is T1, native EpCAM expressed on the cell surface (Homo sapiens, UniProt P16422).
T1 construct: host or cells: T47D, MCF7, MDA-MB-231, HT-29 (EpCAM-positive); U118MG (EpCAM-negative control)
T1 sequence (P16422 24-314): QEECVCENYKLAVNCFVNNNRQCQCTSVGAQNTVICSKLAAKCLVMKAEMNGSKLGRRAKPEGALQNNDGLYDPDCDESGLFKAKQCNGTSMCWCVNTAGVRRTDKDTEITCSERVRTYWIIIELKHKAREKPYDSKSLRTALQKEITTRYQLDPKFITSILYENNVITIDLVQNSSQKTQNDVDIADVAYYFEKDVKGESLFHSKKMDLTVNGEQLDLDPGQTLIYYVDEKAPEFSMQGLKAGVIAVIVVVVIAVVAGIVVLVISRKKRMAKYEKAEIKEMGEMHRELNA
The data set is described as follows: Binding affinities of EpCAM aptamers by flow cytometry. Conditions: read-out: KD (±SEM). As to the method: (§1) Cells were harvested at 80% confluence with trypsin digestion and resuspended in washing buffer (DPBS with 5 mM MgCl2) and enumerated. Following centrifugation (1000×g for 5 min), the cell pellet was resuspended in assay buffer (DPBS supplemented with 5 mM MgCl2, 0.1 mg/ml tRNA, 0.1 mg/ml salmon sperm DNA, 0.2% [w/v] sodium azide, and 5% FCS) and diluted to 1×10^6/mL. The blocking step was carried out at 4′C. The binding of the aptamers was carried out at 37′C for 30 min or 4′C for 1 h, with the final concentration of magnesium chloride being 2.5 mM in all binding assays.
(§2) The equilibrium dissociation constant (K′d) of successful 2′-fluoropyrimidine RNA aptamer species to native EpCAM expressed on the cell surface was determined using flow cytometry with EpCAM-positive and -negative cell lines and a negative control (2-O-methyl-pyrimidine) aptamer (5′-DY647-mGCmGACUmGmGUUmACCCmGmGUCmGdT-3′) (SEQ ID NO:13). Kato III or U118MG cells (5×10^5) were first incubated with assay buffer followed by two washes with binding buffer prior to incubation with serial concentrations (approximately 10-fold above and below the apparent K′d) of FITC-labelled aptamer in a 100 μL assay buffer for 1 h on ice. The cells were washed three times, resuspended in 150 μL assay buffer containing 2.5 mM MgCl2 and subjected to flow cytometric analyses. The FITC-labelled unselected library was used as another negative control. The mean fluorescence intensity (MFI) of the unselected library was subtracted from that of the aptamer-target cell to generate the MFI of specific binding. The K′d for each aptamer was determined by Scatchard analysis according to the equation: [Bound aptamer]/[aptamer]=−(1/KD)×[bound aptamer]+([T]tol/KD) where [T]tot represents the total target concentration. Design and Generation of EpCAM Aptamer-siRNA Chimera
(§3) The binding affinities of both aptamers have been characterised against all five cell lines used in this study by flow cytometry, and the results are shown in Table 1.
Background: In flow cytometry, cells or beads pass a laser one at a time.

The subject of data set [2] is native EpCAM expressed on the cell surface. Described as above. More on the design: species or system human. Conditions: U118MG cells (EpCAM negative); read-out: KD (±SEM). As to the method:
as §1, §2, §3

Data set [3] concerns EpCAM. Description: Immunofluorescence staining of paraffin embedded xenograft tumour sections. More on the design: species or system human; key to Quantification of anti-EpCAM staining by immunofluorescence: ‘−’ no staining; ‘+’ faint incomplete staining in >10% of cells; ‘++’ moderate complete membrance staining; ‘+++’ strong complete membrance staining. The procedure: (§4) A: Immunofluorescence staining of breast cancer (T47D, MCF7 and MDA-MB-231), colon cancer (HT-29) and glioblastoma (U118MG) xenograft tumours by EpCAM aptamers, DT3 and 23, control aptamer and the anti-EpCAM antibody, 323/A3 (Blue: nuclei; Red: EpCAM positive staining). B: Immunohistochemistry was performed with the anti-EpCAM antibody BerEP4, and all tumours were evaluated by haematoxylin and eosin staining for morphological confirmation. Aptamer staining was performed for 15 min at 37° C., while 323/A3 staining was performed at 4° C. overnight and BerEP4 was performed at room temperature for 20 min. All fluorescent images were taken at 60×, while light microscopy images were taken at 20×. Images are representative of at least three separate experiments. Scale bar: 50 μm.
(§5) The cell lines of human origin used in this study were purchased from American type Culture Collection. They were glioblastoma U118-MG; breast carcinoma MCF-7, MDA-MB-231 and T47D; and colorectal adenocarcinoma HT-29. Cells were grown and maintained in culture with Dulbecco's Modified Eagle medium (DMEM) (Invitrogen, Victoria, Australia) supplemented with 10% fetal calf serum (MCF-7, T47D, HT-29, and U118-MG), or Roswell Park Memorial Institute 1640 (RPMI 1640) (Invitrogen) with 10% fetal calf serum (MDA-MB-231). Cells were maintained at 37 ^CC in a humidified atmosphere containing 5% CO2. For xenograft studies, single cell suspensions were harvested by trypsinisation, washed with PBS and resuspended in 0.1 mL of PBS for implantation in BALB/c-Foxn1 ^nu female mice. Once tumours had reached approximately […], they were excised and fixed in 10% neutral buffered formalin prior to processing and embedding. All animal procedures were approved by Deakin University Animal Welfare Committee, and in accordance with the Australian Code of Practice for the Care and Use of Animals for Scientific Purposes.
(§6) Sections from each of the xenograft tumours were cut at 4 μm onto polylysine coated slides prior to deparaffinisation with Histoclear and rehydration through graded ethanol. Heat induced antigen retrieval was performed in a microwave oven using Tris-EDTA buffer (10 mM Tris, 1 mM EDTA, 0.05% Tween 20, pH 9.0) for 20 min and the slides were allowed to cool prior to blocking with 0.1 mg/mL tRNA, 0.1 mg/mL salmon sperm DNA and 1 mg/mL bovine serum albumin (BSA) in phosphate buffered saline (PBS) for 20 min. Following the blocking step, slides were washed in PBS containing 0.1% Tween 20 twice for 2 min prior to incubation with either aptamer or antibody. Aptamers were prepared as previously described (Shigdar S et al, supra). Briefly, aptamers were heated to 85° C. for 5 min, allowed to cool to room temperature for 10 min and then heated at 37° C. for 15 min. Slides were incubated with aptamers at 100 nM concentration in a solution of PBS containing 5 mM MgCl2, 0.1 mg/mL tRNA, 1 mg/mL BSA, 10% dextran sulphate and 500 μg/mL heparin for 15 min at 37° C. The slides were then washed three times for 5 min each prior to incubation with Bisbenzimide Hoechst 33342 (3 μg/mL) for 10 min. Slides were then mounted using VECTASHIELD and coverslipped prior to visualisation using a Fluoview FV10i laser scanning confocal microscope. All images used for direct comparison were taken with identical exposure parameters and are presented without any digital contrast alteration or background subtraction. Antibody staining was performed using the anti-EpCAM antibody 323/A3 (ab8601, Abcam). […]

The target in data set [4] is T2, EpCAM (Homo sapiens, UniProt P16422).
T2 sequence (P16422 24-314): T1 sequence (P16422 24-314)
Described as above. More on the design: from tissue; host or cells: xenograft tumours of T47D, MCF7, MDA-MB-231, HT-29 and U118MG cells grown in BALB/c-Foxn1 nu mice, formalin-fixed and paraffin-embedded; key to Quantification of anti-EpCAM staining by immunofluorescence: ‘−’ no staining; ‘+’ faint incomplete staining in >10% of cells; ‘++’ moderate complete membrance staining; ‘+++’ strong complete membrance staining. As to the method: as §4, §5
as §6, with “Abcam). Slides were washed and blocked following the same protocol as previously described prior to antibody staining. The antibody was prepared at a concentration of 10 μg/mL and the slides were incubated overnight at 4° C. Slides were then washed three times for 5 min followed by incubation with a goat-anti-mouse IgG AlexaFluor 647 conjugate (Invitrogen) at a concentration of 10 μg/mL for 2 h prior to washing, staining with Bisbenzimide Hoechst 33342, and coverslipping.” for “Abcam).”

Data set [5] has as its target T2, EpCAM. The following applies: patients with metastatic breast cancer; cited from earlier work.

Here are results for 2 substances from patent publication US9567586B2, “EpCAM aptamer for detection of cancer stem cells” (DEAKIN UNIVERSITY, priority 2012, dated 2017).

Where two headings read alike, the source gives them in different places.

What is called Kd is a measure of binding affinity in units of concentration. In the case of “5′-GCGACUGGUUACCCGGUCG-3′ (RNA aptamer, modifications not given here, further chemistry not given here) [DT3]”, the Kd in data set [1] (HT29 cells) was 158 ± 70 nM; in data set [1] (MCF7 cells), 50 ± 18.5 nM; in data set [1] (MDA-MB-231 cells) it was 98.9 ± 37.8 nM; in data set [1] (T47D cells), 74.2 ± 26.2 nM; in data set [2], > 1000 nM. The “Quantification of anti-EpCAM staining by immunofluorescence” value was “−” in the data set on EpCAM [3] (U118MG xenograft); “−” in the data set with EpCAM [4] (HT-29 xenograft); “+ (‘+’ faint incomplete staining in >10% of cells)” in the data set with EpCAM [4] (MCF7 xenograft); “+ (‘+’ faint incomplete staining in >10% of cells)” in the data set with EpCAM [4] (MDA-MB-231 xenograft); “++” with EpCAM [4] (T47D xenograft). Also, in the data set on EpCAM [3] (U118MG xenograft that does not express EpCAM), the “staining of U118MG xenograft (in words)” value is “no staining detectable”. The “staining of HT-29 xenograft sections (in words)” value with EpCAM [4] (HT-29 colorectal cancer xenograft) is “did not show any staining”. Besides, the “detection of EpCAM in MDA-MB-231 xenograft tumour (in words)” value with EpCAM [4] (MDA-MB-231 xenograft, low EpCAM expression) is “successfully detect EpCAM”. Moreover, in the data set with EpCAM [4] (T47D, MCF7 and MDA-MB-231 xenografts, 100 nM, 15 min, 37° C., dextran sulphate and heparin), the “staining of human breast cancer xenografts (in words)” value is recorded as “highly sensitive staining”.

As to “adecatumumab: fully humanised monoclonal anti-EpCAM antibody”, the clinical response result with EpCAM [5] was “dose-dependent and target dependent clinical responses”.
